Measured values published in patent US20250034159A1, “INHIBITORS OF EPIDERMAL GROWTH FACTOR RECEPTOR” (ORIC Pharmaceuticals, Inc., priority 2021, published 2025).

How the values were obtained:
[1] = molecular target: recombinant human EGFR exon 19 deletion/C797S double mutant protein (Homo sapiens (Human), UniProt P00533, C797S/DEL746-750); experiment: Biological Activity Assay C: biochemical assay against EGFR exon 19 deletion/C797S protein (EGFR d19/CS)
In short: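 Compounds were tested as 16-point serial dilutions (final DMSO 2.5%) with a Phosphosens peptide sensor/ATP working solution (40 uM/4 mM). The signal was read kinetically over 90 cycles at 120 s intervals. IC50s came from 4-parameter fits of per-well slopes.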

[2] = tested on: Ba/F3_EGFR WT cells; experiment: Biological Activity Assay D: BaF3 cell proliferation assay, EGFR wild-type (BaF3 WT); format: cell-based; conditions: Ba/F3 EGFR; Ba/F3_EGFR WT cells, ~72 hours, CellTiter-Glo; read-out: BaF3 WT IC50
[3] = tested on: BaF3_EGFR LR/CS cells; experiment: Biological Activity Assay D: BaF3 cell proliferation assay, EGFR L858R/C797S mutant (BaF3 LR/CS); format: cell-based; conditions: Ba/F3 EGFR; BaF3_EGFR LR/CS cells, ~72 hours, CellTiter-Glo; read-out: BaF3 LR/CS IC50
[4] = tested on: BaF3_EGFR d19/CS cells; experiment: Biological Activity Assay D: BaF3 cell proliferation assay, EGFR exon 19 deletion/C797S (BaF3 d19/CS); format: cell-based; conditions: Ba/F3 EGFR; BaF3_EGFR d19/CS cells, ~72 hours, CellTiter-Glo; read-out: BaF3 d19/CS IC50

Chain of recombinant human EGFR exon 19 deletion/C797S double mutant protein (P00533 other isoform, or with tags, fused parts or gaps C797S/del 1-668/del 746-750 limits assumed): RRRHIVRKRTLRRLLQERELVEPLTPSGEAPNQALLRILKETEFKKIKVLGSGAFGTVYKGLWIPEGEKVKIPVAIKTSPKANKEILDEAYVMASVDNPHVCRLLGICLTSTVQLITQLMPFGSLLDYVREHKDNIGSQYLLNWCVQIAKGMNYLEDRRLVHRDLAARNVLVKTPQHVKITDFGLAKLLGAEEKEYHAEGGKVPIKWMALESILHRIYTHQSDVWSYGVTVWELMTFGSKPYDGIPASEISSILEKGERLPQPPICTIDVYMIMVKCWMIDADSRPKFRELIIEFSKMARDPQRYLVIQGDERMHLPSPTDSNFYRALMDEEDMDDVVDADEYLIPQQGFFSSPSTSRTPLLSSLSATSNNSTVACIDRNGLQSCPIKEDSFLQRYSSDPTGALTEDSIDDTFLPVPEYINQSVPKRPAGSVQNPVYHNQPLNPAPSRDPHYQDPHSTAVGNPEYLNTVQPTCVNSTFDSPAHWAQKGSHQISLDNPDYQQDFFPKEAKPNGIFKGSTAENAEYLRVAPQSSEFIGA

SMILES	IC50 [1] [nM]	IC50 [2] [nM]	IC50 [3] [nM]	IC50 [4] [nM]
CC(C)(C)OC(=O)N1CCC=C(c2cc3c(-c4cn(C5CS(=O)(=O)C5)nc4-c4ccc(F)cc4)ncnc3o2)C1 [Example 146, tert-butyl 5-{4-[1-(1,1-dioxo-1λ6-thietan-3-yl)-3-(4-fluorophenyl)-1H-pyrazol-4-yl]furo[2,3-d]pyrimidin-6-yl}-3,6-dihydropyridine-1(2H)-carboxylate]	4.18	7880	928	525
NC(=O)CCCn1cc(-c2ncnc3oc(-c4ccccc4)cc23)c(-c2ccc(F)cc2)n1 [Example 147, 4-[3-(4-Fluorophenyl)-4-(6-phenylfuro[2,3-d]pyrimidin-4-yl)-1H-pyrazol-1-yl]butanamide]	0.26	1380	73.3	68.6
CN1CCC(n2cc(-c3ncnc4oc(-c5ccccc5)cc34)c(-c3ccc(F)cc3)n2)C1=O (stereo not drawn) [Example 148, 3-[3-(4-Fluorophenyl)-4-(6-phenylfuro[2,3-d]pyrimidin-4-yl)-1H-pyrazol-1-yl]-1-methylpyrrolidin-2-one]	0.61	1510	69.8	92.3
CC(=O)N1CCN(c2cc3c(-c4cn(C5CS(=O)(=O)C5)nc4-c4ccc(F)cc4)ncnc3o2)CC1 [Example 149, 3-{4-[6-(4-acetylpiperazin-1-yl)furo[2,3-d]pyrimidin-4-yl]-3-(4-fluorophenyl)-1H-pyrazol-1-yl}-1λ6-thietane-1,1-dione]	3.72	> 20000	2770	1160
Fc1ccc(-c2nn([C@H]3C[C@@H](F)C3)cc2-c2ncnc3oc(-c4ccccc4)cc23)cc1 [Example 150, 4-{1-[(1s,3s)-3-fluorocyclobutyl]-3-(4-fluorophenyl)-1H-pyrazol-4-yl}-6-phenylfuro[2,3-d]pyrimidine]	1.42	3320	42.2	69.9
O=S1(=O)CC(n2cc(-c3ncnc4oc(C5=CNCCC5)cc34)c(-c3ccc(F)cc3)n2)C1 [Example 154, 3-{3-(4-fluorophenyl)-4-[6-(1,4,5,6-tetrahydropyridin-3-yl)furo[2,3-d]pyrimidin-4-yl]-1H-pyrazol-1-yl}-1λ6-thietane-1,1-dione]	0.75	16300	630	440
CC(=O)N1C=C(c2cc3c(-c4cn(C5CS(=O)(=O)C5)nc4-c4ccc(F)cc4)ncnc3o2)CCC1 [Example 155, 3-{4-[6-(1-acetyl-1,4,5,6-tetrahydropyridin-3-yl)furo[2,3-d]pyrimidin-4-yl]-3-(4-fluorophenyl)-1H-pyrazol-1-yl}-1λ6-thietane-1,1-dione]	0.41	1160	65	63.8
FCCCn1cc(-c2ncnc3oc(-c4ccccc4)cc23)c(-c2ccc(F)cc2)n1 [Example 156, 4-[3-(4-fluorophenyl)-1-(3-fluoropropyl)-1H-pyrazol-4-yl]-6-phenylfuro[2,3-d]pyrimidine]	0.31	1480	18.8	30.5
CC(C)(Cn1cc(-c2ncnc3oc(-c4ccccc4)cc23)c(-c2ccc(F)cc2)n1)C(N)=O [Example 158, 3-[3-(4-fluorophenyl)-4-(6-phenylfuro[2,3-d]pyrimidin-4-yl)-1H-pyrazol-1-yl]-2,2-dimethylpropanamide]	0.26	782	15.1	33
O=S1(=O)CC(n2cc(-c3ncnc4oc(C5=CCCNC5)cc34)c(-c3ccc(F)cc3)n2)C1 [Example 159, 3-{3-(4-fluorophenyl)-4-[6-(1,2,5,6-tetrahydropyridin-3-yl)furo[2,3-d]pyrimidin-4-yl]-1H-pyrazol-1-yl}-1λ6-thietane-1,1-dione]	3.79	6050	511	267
O=C1CCCCN1c1cc2c(-c3cn(C4CS(=O)(=O)C4)nc3-c3ccc(F)cc3)ncnc2o1 [Example 160, 3-{3-(4-fluorophenyl)-4-[6-(2-oxopiperidin-1-yl)furo[2,3-d]pyrimidin-4-yl]-1H-pyrazol-1-yl}-1λ6-thietane-1,1-dione]	4.99	14200	751	359
N=S1(=O)CCC(n2cc(-c3ncnc4oc(-c5ccccc5)cc34)c(-c3ccc(F)cc3)n2)C1 (stereo not drawn) [Example 161, 3-[3-(4-fluorophenyl)-4-(6-phenylfuro[2,3-d]pyrimidin-4-yl)-1H-pyrazol-1-yl]-1-imino-1λ6-thiolan-1-one]	0.14	565	4.93	13.1
C[C@]1(O)C[C@@H](Cn2cc(-c3ncnc4oc(-c5ccccc5)cc34)c(-c3ccc(F)cc3)n2)C1 [Example 162, (1s,3s)-3-{[3-(4-fluorophenyl)-4-(6-phenylfuro[2,3-d]pyrimidin-4-yl)-1H-pyrazol-1-yl]methyl}-1-methylcyclobutan-1-ol]	0.44	1360	10.6	63.9
CS(=O)(=O)[C@H]1C[C@@H](n2cc(-c3ncnc4oc(-c5ccccc5)cc34)c(-c3ccc(F)cc3)n2)C1 [Example 163, 4-{3-(4-fluorophenyl)-1-[(1s,3s)-3-(methanesulfonyl)cyclobutyl]-1H-pyrazol-4-yl}-6-phenylfuro[2,3-d]pyrimidine]	0.27	619	10.1	22.1
O=S1(=O)CC(n2cc(-c3ncnc4oc(-c5cccnc5)cc34)c(-c3ccc(F)cc3)n2)C1 [Example 164, 3-{3-(4-fluorophenyl)-4-[6-(pyridin-3-yl)furo[2,3-d]pyrimidin-4-yl]-1H-pyrazol-1-yl}-1λ6-thietane-1,1-dione]	0.29	888	26.3	36.3
O=S1(=O)CC(n2cc(-c3ncnc4oc(-c5ccncc5)cc34)c(-c3ccc(F)cc3)n2)C1 [Example 165, 3-{3-(4-fluorophenyl)-4-[6-(pyridin-4-yl)furo[2,3-d]pyrimidin-4-yl]-1H-pyrazol-1-yl}-1λ6-thietane-1,1-dione]	0.26	1090	20.6	37
O=S1(=O)CC(n2cc(-c3ncnc4oc(N5CC6(CCOC6)C5)cc34)c(-c3ccc(F)cc3)n2)C1 [Example 168, 3-{3-(4-fluorophenyl)-4-[6-(6-oxa-2-azaspiro[3.4]octan-2-yl)furo[2,3-d]pyrimidin-4-yl]-1H-pyrazol-1-yl}-1λ6-thietane-1,1-dione]	15.6	> 20000	3570	1150
O=S1(=O)CC(n2cc(-c3ncnc4oc(-c5cccc(C(F)(F)F)c5)cc34)c(-c3ccc(F)cc3)n2)C1 [Example 169, 3-[3-(4-fluorophenyl)-4-{6-[3-(trifluoromethyl)phenyl]furo[2,3-d]pyrimidin-4-yl}-1H-pyrazol-1-yl]-1λ6-thietane-1,1-dione]	3.08	11300	399	461
Fc1ccc(-c2nn(C3CC(F)(F)C3)cc2-c2ncnc3oc(-c4ccccc4)cc23)cc1 [Example 170, 4-[1-(3,3-difluorocyclobutyl)-3-(4-fluorophenyl)-1H-pyrazol-4-yl]-6-phenylfuro[2,3-d]pyrimidine]	1.37	4840	97.1	213
O=S1(=O)CCC(n2cc(-c3ncnc4[nH]c(-c5ccccc5)nc34)c(-c3ccc(F)cc3)n2)C1 (stereo not drawn) [Example 171, 3-[3-(4-fluorophenyl)-4-(8-phenyl-9H-purin-6-yl)-1H-pyrazol-1-yl]-1λ6-thiolane-1,1-dione]	0.06	1810	7.74	26.6
Fc1ccc(-c2nn([C@H]3C[C@H]4CC[C@@H](C3)O4)cc2-c2ncnc3oc(-c4ccccc4)cc23)cc1 [Example 172, 4-{3-(4-fluorophenyl)-1-[(1R,3r,5S)-8-oxabicyclo[3.2.1]octan-3-yl]-1H-pyrazol-4-yl}-6-phenylfuro[2,3-d]pyrimidine]	1.44	7050	33.1	199
O=S1(=O)CC(n2cc(-c3ncnc4oc(-c5ccccn5)cc34)c(-c3ccc(F)cc3)n2)C1 [Example 173, 3-{3-(4-fluorophenyl)-4-[6-(pyridin-2-yl)furo[2,3-d]pyrimidin-4-yl]-1H-pyrazol-1-yl}-1λ6-thietane-1,1-dione]	0.11	800	17.6	28.9
O=S1(=O)CC(n2cc(-c3ncnc4oc(-c5ccnnc5)cc34)c(-c3ccc(F)cc3)n2)C1 [Example 174, 3-{3-(4-fluorophenyl)-4-[6-(pyridazin-4-yl)furo[2,3-d]pyrimidin-4-yl]-1H-pyrazol-1-yl}-1λ6-thietane-1,1-dione]	3.72	9070	770	491
O=S1(=O)CC(n2cc(-c3ncnc4oc(-c5cncnc5)cc34)c(-c3ccc(F)cc3)n2)C1 [Example 175, 3-{3-(4-fluorophenyl)-4-[6-(pyrimidin-5-yl)furo[2,3-d]pyrimidin-4-yl]-1H-pyrazol-1-yl}-1λ6-thietane-1,1-dione]	6.08	11700	472	248
